Experimental data as given in patent US10357496B2, “Methods, formulations, and kits for rapidly repleting folate levels in women” (SOUTH ALABAMA MEDICAL SCIENCE FOUNDATION, priority 2011, dated 2019).

What was measured:
[1] = system: mice homozygous for loss of folate binding protein 1; conditions: 10.75 to 43.0 micromoles/kg/day; untreated mice died in utero; optimal between days E7-E9; cited from earlier work
[2] = cited from earlier work
[3] = Trial B; microbiological assay
Experimental: (§1) The 21 volunteers with a value below 25 nM serum folate at screening ranged between 20 to 44 years old.

[4] = Trial B
Experimental: as §1

[5] = Experimental: A study of the rate of increase of serum folate with 5-methyl-6S-tetrahydrofolate (6S-5-MTHF) was performed with women of child bearing age (final range: 20 to 44 years old). Volunteers were screened for fasting serum folate, and the lower quintile enrolled (n=21 participants). On the first day, a baseline fasting blood sample was obtained using a serum separator tube, and then a 7.5 mg (16.3 micromoles) oral dose of 6S-5-MTHF along with 0.5 mg of cyanocobalamin was administered. After 24 hours (day 2) and again after 48 hours (day 3) fasting blood samples were withdrawn, and the same doses of 6S-5-MTHF and vitamin B12 were administered. At 72 hours (day 4) and 96 hours (day 5), further blood samples were withdrawn, but without administration of vitamins for the first 10 Subjects.
These subjects returned on days 12 and 19 to provide serum samples. Compliance was established by counting the excess tablets at the end of the study.
The serum samples were frozen and then initially analyzed for total folate using the Immulite 2000 competitive binding assay, and later by microbiological assay using L. rhamnosus. Serum B12 was determined using the Immulite 2000 assay. This study and the following trials B and C were performed with approval by the Institutional Review Board of the University of South Alabama.

[6] = cited from earlier work; remark: listed apart in the source
cleft lip/palate = conditions: periconceptual administration; cited from earlier work
[7] = format: in vivo, women
heart defects = conditions: periconceptional use; cited from earlier work
recurrent NTD = conditions: 4 mg/day; cited from earlier work
NTD = conditions: 400 μg/d, cited from earlier work
[8] = Trial A: serum B12 by Immulite 2000 assay; format: in vivo, women; conditions: three daily 0.5 mg doses, by 72 hours, subjects (n=6) with screening values below 330 pg/mL
Experimental: Serum B12 was determined using the Immulite 2000 assay.
The average vitamin B12 levels specifically for those subjects (n=6) with screening values below 330 pg/mL are shown in FIG. 2 (dotted line). By 72 hours after initiation of the three doses, serum B12 increased on average by about 80 pg/mL, and then fell slightly. Levels below 200 pg/mL are considered to be deficient, and those between 200 and 350 pg/mL are generally considered to be low-normal. Data beyond day 5 are not available for this trial, since only one of those with sub-optimal B12 status volunteered to continue.

Trial B: serum B12 = format: in vivo, women
Text: It is believed that this may be due to uptake of the plasma B12 into the tissues of the deficient or mildly deficient subjects. None the less, by day 12 nearly half of the subjects were still in the normal range.

[9] = after 4 weeks of 800 μg (Brämswig et al.)

Nc1nc2c(c(=O)[nH]1)N(C=O)C(CNc1ccc(C(=O)N[C@@H](CCC(=O)O)C(=O)O)cc1)CN2 (some centres unmarked) [5-formyl-tetrahydrofolate]
survival and malformations of knockout mice [1]: some of these mice survived, but were subject to malformations

CN1c2c(nc(N)[nH]c2=O)NCC1CNc1ccc(C(=O)N[C@@H](CCC(=O)O)C(=O)O)cc1 (some centres unmarked) [5-methyltetrahydrofolate]
survival and malformations of knockout mice [1]: some of these mice survived, but were subject to malformations | time to reach plateau in the plasma ([2]; 400 μg/d, young women): 12 weeks

CN1c2c(nc(N)[nH]c2=O)NC[C@@H]1CNc1ccc(C(=O)N[C@@H](CCC(=O)O)C(=O)O)cc1 [6S-5-MTHF, 5-methyl-6S-tetrahydrofolate]
total folate: women below 50 nM during the study [3]: only a single person was ever below 50 nM | average serum level maintained over the next two weeks ([4]; 0.8 mg/d 6S-5-MTHF starting on day 4): higher than 66 nM | average serum 5-MTHF, day 5 ([4]; 48 hours after last 7.5 mg dose, 0.8 mg/d maintenance from day 4): 74 nM | average serum 5-MTHF, day 4 ([4]; five 7.5 mg doses every 12 hours, 24 hours after last 7.5 mg dose): 98 nM | number of subjects not reaching greater than 37 nM serum total folate by the second day ([5]; Trial A): three | percent of subjects not reaching greater than 37 nM serum total folate by the second day ([5]; Trial A): 15% | total folate of all subjects by the fourth day ([5]; in vivo): above 55 nM | total folate of all subjects by the third day ([5]; in vivo): above 44 nM

Nc1nc2ncc(CNc3ccc(C(=O)N[C@@H](CCC(=O)O)C(=O)O)cc3)nc2c(=O)[nH]1 [folic acid]
average red cell folate level [6, 9]: 919 nM | time of treatment to elevate red cell concentrations to 906 nM ([6]; daily dose of 800 μg): 4.2±3.5 weeks | reduction in recurrence of orofacial clefts (meta-analysis) (cleft lip/palate): two thirds | number of subjects below 44 nM total folate by the third day ([7]; Trial C): 9 | number of subjects below 50 nM total folate by the fourth day ([7]; Trial C): 10 | percent of subjects failing to achieve greater than 37 nM serum total folate by the second day ([7]; Trial C): 40% | number of subjects failing to achieve greater than 37 nM serum total folate by the second day ([7]; Trial C, of 20): 8 | highest serum total folate in any measurement, single slow-responding subject ([7]; female, human, in vivo): ≤ 32 nM | decrease in the prevalence of heart defects (heart defects): 20% | recurrent NTD prevented compared to the control group (recurrent NTD): 72% | NTD cases after treatment, southern region (NTD; 10 per 10,000 births before intervention): 6 per 10,000 | NTD cases after treatment, northern region (NTD; 48 per 10,000 births before intervention): 10 per 10,000 | average plasma folate level [2, 9]: 50 nM

cyanocobalamin
average increase of serum B12 [8]: about 80 pg/mL | rate of increase of serum B12 (Trial B: serum B12; Trial B three daily 1.0 mg doses versus Trial A 0.5 mg doses): considerably greater than observed with the 0.5 mg doses | subjects with serum B12 still in the normal range by day 12 (Trial B: serum B12; Trial B, after three daily 1.0 mg doses): nearly half | half life of fall of serum B12 after discontinuation (Trial B: serum B12; Trial B, after three daily 1.0 mg doses, approximate exponential): about 2% | subjects with serum B12 in the normal range by day 4 (Trial B: serum B12; Trial B, three daily 1.0 mg doses): 88%
